The text below walks through data of article PMC6494935, “Glesatinib, a c-MET/SMO Dual Inhibitor, Antagonizes P-glycoprotein Mediated Multidrug Resistance in Cancer Cells” (Frontiers in Oncology, 2019).

The target in series [1] is T1, P-glycoprotein (P-gp, ABCB1) (Homo sapiens, UniProt P08183). Briefly: vanadate-sensitive ATPase stimulation in membrane vesicles; also inhibits [3H]-paclitaxel efflux in KB-C2 cells. The format is biochemical. More on the design: ABCB1 in membrane vesicles of High Five insect cells.
T1 sequence (P08183 whole entry): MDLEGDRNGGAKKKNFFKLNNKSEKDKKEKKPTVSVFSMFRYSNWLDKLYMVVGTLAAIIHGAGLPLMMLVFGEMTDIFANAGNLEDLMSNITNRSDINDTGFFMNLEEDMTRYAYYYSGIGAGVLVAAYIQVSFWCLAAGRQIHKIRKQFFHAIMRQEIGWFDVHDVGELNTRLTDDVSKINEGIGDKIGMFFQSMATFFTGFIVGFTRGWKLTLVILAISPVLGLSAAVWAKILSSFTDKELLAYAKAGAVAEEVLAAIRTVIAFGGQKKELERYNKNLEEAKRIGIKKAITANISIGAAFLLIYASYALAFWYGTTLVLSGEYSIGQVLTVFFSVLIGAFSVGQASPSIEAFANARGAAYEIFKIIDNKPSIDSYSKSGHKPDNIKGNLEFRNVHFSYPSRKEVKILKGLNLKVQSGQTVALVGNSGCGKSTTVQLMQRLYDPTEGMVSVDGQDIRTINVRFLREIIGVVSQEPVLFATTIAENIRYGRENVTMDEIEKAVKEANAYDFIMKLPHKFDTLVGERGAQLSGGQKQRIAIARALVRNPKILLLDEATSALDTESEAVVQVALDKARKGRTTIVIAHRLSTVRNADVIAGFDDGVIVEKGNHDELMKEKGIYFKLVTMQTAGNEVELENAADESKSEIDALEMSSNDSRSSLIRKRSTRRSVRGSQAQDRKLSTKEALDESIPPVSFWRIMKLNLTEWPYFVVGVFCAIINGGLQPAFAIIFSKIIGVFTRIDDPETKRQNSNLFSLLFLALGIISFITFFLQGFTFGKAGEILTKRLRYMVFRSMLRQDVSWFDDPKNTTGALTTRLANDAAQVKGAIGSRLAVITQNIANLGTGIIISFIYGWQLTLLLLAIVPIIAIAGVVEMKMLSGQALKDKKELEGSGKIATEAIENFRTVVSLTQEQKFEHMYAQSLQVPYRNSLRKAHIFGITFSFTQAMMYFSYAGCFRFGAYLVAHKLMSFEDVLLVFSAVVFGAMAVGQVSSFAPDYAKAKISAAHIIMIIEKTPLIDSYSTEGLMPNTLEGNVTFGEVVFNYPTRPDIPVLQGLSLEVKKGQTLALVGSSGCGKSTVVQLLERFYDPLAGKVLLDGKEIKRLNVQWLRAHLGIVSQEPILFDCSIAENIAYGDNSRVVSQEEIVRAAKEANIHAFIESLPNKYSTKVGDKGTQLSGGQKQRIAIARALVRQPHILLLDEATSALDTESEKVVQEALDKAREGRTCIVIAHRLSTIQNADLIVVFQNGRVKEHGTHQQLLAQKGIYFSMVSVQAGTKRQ
Series [2] deals with T1, P-glycoprotein (P-gp, ABCB1).

The term EC50 denotes the concentration that produces a half-maximal response. A high value points to weaker potency. With `COCCNCc1ccc(-c2cc3nccc(Oc4ccc(NC(=S)NC(=O)Cc5ccc(F)cc5)cc4F)c3s2)nc1` [glesatinib], the EC50 in series [1] stood at 3.2 µM.
With `CC(=O)O[C@H]1C(=O)[C@@]2(C)[C@H]([C@H](OC(=O)c3ccccc3)[C@]3(O)C[C@H](OC(=O)[C@H](O)[C@@H](NC(=O)c4ccccc4)c4ccccc4)C(C)=C1C3(C)C)[C@]1(OC(C)=O)CO[C@@H]1C[C@@H]2O` [paclitaxel], the “[3H]-paclitaxel accumulation and efflux in KB-C2 vs parental KB-3-1 cells” value in series [2] was “While in P-gp overexpressing KB-C-2 cells, [^3H]-paclitaxel accumulation decreased significantly as shown in Figures 4A,C”.
